The values that follow come from the NIST ThermoML archive (doi:10.1021/je9008156).

Numbers after ± are expanded uncertainties.

The conditions of this data set: Crystal; visual observation.

For the compound `Nc1c(I)c(C(=O)NCC(O)CO)c(I)c(C(=O)NCC(O)CO)c1I` (stereo unspecified), the Normal melting temperature came to 193.00 ± 0.5 °C.
